The record followed here is the NIST ThermoML archive (doi:10.1016/j.jct.2014.12.022).

± gives the expanded uncertainty stated by the source.

Data set [1] is described as follows: molar heat capacity at constant pressure. Particulars: 101.33 kPa, Liquid, Small sample (50 mg) DSC.
The conditions of data set [2]: 101.33 kPa, Liquid; for speed of sound: Sing-around technique in a fixed-path interferometer; for mass density: Vibrating tube method.

A word on the speed of sound: it is the propagation velocity of pressure waves in the medium. A word on the mass density: it is mass per unit of volume. Turning to `c1ccccc1` [benzene], the “molar heat capacity at constant pressure” value in data set [1] (293.15 K) is 133.58 ± 2.7 J/K/mol; in data set [1] (298.15 K) it was 135.28 ± 2.7 J/K/mol; in data set [1] (303.15 K), 136.58 ± 2.7 J/K/mol. The speed of sound in data set [2] (293.15 K) was 1322.6 ± 1.5 m/s; in data set [2] (298.15 K) it was 1299.4 ± 1.5 m/s; in data set [2] (303.15 K), 1276.2 ± 1.5 m/s. For the same molecule, the mass density in data set [2] (293.15 K) was determined as 878.89 ± 1 kg/m3; in data set [2] (298.15 K), 873.54 ± 1 kg/m3; in data set [2] (303.15 K), 868.2 ± 1 kg/m3.
With `CN1CCCC1=O` [N-methylpyrrolidone], the “molar heat capacity at constant pressure” value in data set [1] (293.15 K) came out at 165.44 ± 3.3 J/K/mol; in data set [1] (298.15 K), 166.22 ± 3.3 J/K/mol; in data set [1] (303.15 K), 166.92 ± 3.3 J/K/mol. In addition, the speed of sound in data set [2] (293.15 K) amounted to 1565.6 ± 1.6 m/s; in data set [2] (298.15 K) it was 1546.1 ± 1.6 m/s; in data set [2] (303.15 K), 1527.3 ± 1.6 m/s. Besides, the mass density is reported as 1033.3 ± 1 kg/m3 in data set [2] (293.15 K), 1028.3 ± 1 kg/m3 in data set [2] (298.15 K) and 1023.5 ± 1 kg/m3 in data set [2] (303.15 K).
